According to patent publication US10245271B2, “Treatment of impaired cognitive flexibility with TrkB receptor antagonists” (Florida State University Research Foundation, Inc., priority 2015, dated 2019):
“Also recorded” adds a separate entry of the source.

Key:
[1] = tested on: prenatally cocaine-exposed mice; experiment: Olfactory (odor) reversal learning, go no-go olfactometer paradigm; type: in vivo, mouse (Swiss Webster)
Protocol: Swiss Webster mice were housed in a temperature and humidity controlled environment on a 12 hr light/dark cycle with food and water available ad libitum were bred to obtain timed pregnancies.
Singly housed dams received twice daily (7 AM and 7 PM) subcutaneous injections of cocaine (20 mg/kg/injection: total daily dose=40 mg/kg/day) or saline (same volume and time of administration as the cocaine injection) from the 8th day of pregnancy until the day of birth. The period of cocaine exposure corresponds to mid-first trimester of human pregnancies.
(§1) Olfactometry: Reversal learning was assayed in an automated olfactometer based on odor learning and detection using water as reward (41, 42). Briefly, odorants were presented via an 8-channel liquid dilution computerized olfactometer (Knosys LD8-1, Tampa, Fla.) so that odorant threshold determinations were automated and stimulus concentration, timing of onset and offset, and stimulus control of behavior could be controlled reliably. We modified our Knosys system to provide additional mechanical dampening of the solenoid pinch valves to permit incorporation of materials for mounting the machine in-line with sterilization of the olfactometer.
The Knosys olfactometer employs operant conditioning in the form of both positive and negative reinforcements. Positive reinforcement is used when pairing an odorant with water reward (S+). A 10-second time out or negative reinforcement occurs as a result of a mouse responding to a negative cue or diluent (S−). Mice were therefore trained in a classical “go no-go” operant conditioning paradigm to recognize an odorant.
Operant training: Mice were water-deprived to 85% of their baseline bodyweight to motivate them for a water reward. Operant training was performed using a step-wise battery of tasks that began with reward reinforcement for learning to lick a water delivery tube and snout insertion into the odor sampling port. Mice advanced to the next stage after 30 reinforcements. Next, mice were reinforced for lick decisions paired with a positively entrained odor (S+). They were required to nose poke for an extended period of time to sample an odor prior to receiving water reinforcement.
During the go no-go operant training mice inserted their snout into the odor sampling port to initiate a trial and waited until the odor stimulus was presented. […] The mice were rewarded for lick decisions paired with a positively entrained odor (S+) and also for correct rejections paired with a negatively entrained odor (S−). This establishes the “go no-go” reward criteria. The percentage of correct responses per trial was determined by the formula: % correct responses=[(HITs+Correct Rejections)/20]×100, where a HIT is defined as a criterion response in the presence of S+, and a Correct Rejection (CR) is a failure to make a criterion response in the presence of […] 20 represents the number of trials per block.
Odor Reversal Learning: Once mice achieved criteria performance on the two-odor discrimination testing for a week, mice underwent an odor-reversal learning paradigm. Here mice were introduced to the switch (reversal) of the S+ for the S− stimulus where the previously rewarded odor stimulus now lacked the water reward and the previously unrewarded odor stimulus was now paired with the water reward.
The scent stimuli used were 5% Ethyl Acetate (EA) and 1% Acetophenone (AP).
Upon successful completion of the training phase and odor discrimination phase a subset of mice were randomly assigned to the ANA-12 injection group. ANA-12 (Sigma Aldrich, St. Louis, Mo.; SML0209) was administered twice daily [0.5 mg/kg; 1.0 mg/kg/day intraperitoneal (i.p.)] for 13 consecutive days. ANA-12 was dissolved in 100% DMSO (stock), and diluted further such that the final concentration of DMSO administered to the mice was 1%. On days 8-10 of the injection period, the mice were water deprived (to 85% of pre-deprivation weight). […]

mice = mice dosed with ANA-12; Cazorla et al., J. Clin. Invest. 121(5), 1846-57 (2011); cited from earlier work
TrkA = TrkA (Homo sapiens, UniProt P04629); conditions: cited from earlier work
TrkC = TrkC (Homo sapiens, UniProt Q16288); conditions: cited from earlier work
[2] = tested on: prenatally cocaine-exposed mice; experiment: Odor versus odor discrimination (two-odor discrimination testing); type: in vivo, mouse (Swiss Webster); conditions: ANA-12 i.p. twice a day, 1 mg/kg/day; data not shown
Protocol: as §1
During the go no-go operant training mice inserted their snout into the odor sampling port to initiate a trial and waited until the odor stimulus was presented. […] The mice were rewarded for lick decisions paired with a positively entrained odor (S+) and also for correct rejections paired with a negatively entrained odor (S−). This establishes the “go no-go” reward criteria. The percentage of correct responses per trial was determined by the formula: % correct responses=[(HITs+Correct Rejections)/20]×100, where a HIT is defined as a criterion response in the presence of S+, and a Correct Rejection (CR) is a failure to make a criterion response in the presence of […] 20 represents the number of trials per block. […]

Chain of TrkC (Q16288 32-839, species assumed): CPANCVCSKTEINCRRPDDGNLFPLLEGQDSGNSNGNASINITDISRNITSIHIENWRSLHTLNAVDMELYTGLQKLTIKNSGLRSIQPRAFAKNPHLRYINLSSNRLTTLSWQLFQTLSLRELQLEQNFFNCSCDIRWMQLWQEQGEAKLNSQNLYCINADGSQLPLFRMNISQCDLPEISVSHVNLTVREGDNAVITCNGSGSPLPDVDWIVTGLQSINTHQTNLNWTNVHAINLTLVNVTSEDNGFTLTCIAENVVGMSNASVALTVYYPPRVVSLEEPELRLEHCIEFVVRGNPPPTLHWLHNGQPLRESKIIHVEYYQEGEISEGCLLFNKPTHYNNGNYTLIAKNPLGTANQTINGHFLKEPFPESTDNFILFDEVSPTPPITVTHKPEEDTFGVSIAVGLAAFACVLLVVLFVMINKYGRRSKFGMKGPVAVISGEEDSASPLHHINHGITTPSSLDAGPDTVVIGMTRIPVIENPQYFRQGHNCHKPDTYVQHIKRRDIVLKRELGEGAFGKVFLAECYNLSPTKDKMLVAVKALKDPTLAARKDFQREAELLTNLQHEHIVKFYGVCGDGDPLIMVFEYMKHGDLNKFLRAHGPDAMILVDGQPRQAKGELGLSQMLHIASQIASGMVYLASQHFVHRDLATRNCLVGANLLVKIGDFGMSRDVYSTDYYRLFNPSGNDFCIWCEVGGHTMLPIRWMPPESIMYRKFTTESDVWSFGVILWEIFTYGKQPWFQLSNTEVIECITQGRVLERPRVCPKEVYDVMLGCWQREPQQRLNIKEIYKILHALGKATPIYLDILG
Chain of TrkA (P04629 33-796, species assumed): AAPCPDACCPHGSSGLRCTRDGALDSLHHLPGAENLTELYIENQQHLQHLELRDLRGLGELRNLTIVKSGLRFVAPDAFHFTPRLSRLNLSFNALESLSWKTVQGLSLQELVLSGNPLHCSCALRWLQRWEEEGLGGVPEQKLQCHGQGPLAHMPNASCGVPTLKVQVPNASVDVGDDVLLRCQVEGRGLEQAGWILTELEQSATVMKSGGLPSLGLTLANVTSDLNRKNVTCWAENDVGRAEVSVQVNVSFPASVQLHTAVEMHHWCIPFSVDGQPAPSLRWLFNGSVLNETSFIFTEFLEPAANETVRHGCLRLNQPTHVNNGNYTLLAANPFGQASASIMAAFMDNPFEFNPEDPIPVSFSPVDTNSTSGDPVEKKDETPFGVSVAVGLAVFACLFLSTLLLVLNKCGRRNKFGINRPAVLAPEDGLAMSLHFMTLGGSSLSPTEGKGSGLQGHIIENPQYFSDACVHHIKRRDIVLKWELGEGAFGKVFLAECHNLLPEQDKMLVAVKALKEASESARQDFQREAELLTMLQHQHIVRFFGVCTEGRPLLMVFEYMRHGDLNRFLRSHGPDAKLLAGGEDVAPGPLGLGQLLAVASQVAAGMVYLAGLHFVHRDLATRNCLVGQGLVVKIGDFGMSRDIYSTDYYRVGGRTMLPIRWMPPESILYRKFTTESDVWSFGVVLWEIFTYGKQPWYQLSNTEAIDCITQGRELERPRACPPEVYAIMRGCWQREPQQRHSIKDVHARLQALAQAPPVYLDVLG

## O=C(Nc1ccccc1C(=O)NC1CCCCNC1=O)c1cc2ccccc2s1 (stereo not shown) [ANA-12, N-[2-[[(Hexahydro-2-oxo-1H-azepin-3-yl)amino]carbonyl]phenyl]-benzo[b]thiophene-2-carboxamide]
[1]; ANA-12 treated prenatally cocaine-exposed mice vs prenatally cocaine-exposed mice, i.p. 1 mg/kg/day, 13 days, 1 mg/kg/day
  performance in the reversal paradigm: performed better; also recorded: significant improvement in performance
[1]; ANA-12 treatment, summary statement
  cognitive flexibility of treated subjects: a statistically significant number of subjects tested showed improved cognitive flexibility
[1]; Cocaine+ANA12 group, i.p. 1 mg/kg/day, 13 days
  Number of trials to reach criteria (≥80%), Mean±SEM: 255.0±9.6
[1]; Mann-Whitney's U test, saline vs cocaine+ANA-12, p>0.05
  difference in number of trials to reach criteria vs saline-exposed mice: no significant difference
[1]; Student's t-test, p>0.05
  time course of reversal learning vs saline-exposed mice: not significantly different
[1]; cocaine+ANA-12 group
  median number of trials needed to reach criteria following reversal of the odors: 290
[1]; cocaine+ANA-12 group vs saline (U=3.5, p>0.05)
  mean rank, Mann-Whitney's U test, number of trials to reach criteria: 22.5
[1]; day 2 (blocks 11-20), t=3.557, df=124, p<0.01, FIG. 2A
  % correct responses in reversal learning, post-hoc Bonferroni comparison cocaine versus cocaine+ANA-12: significant difference
[1]; prenatally cocaine-exposed mice injected with ANA-12, FIG. 2B
  percentage of mice that reached criteria (at least 80% correct) over the two days: 57%
mice
  anxiety- and depression-related behaviors: reduced anxiety- and depression-related behaviors
TrkA
  effect on TrkA functions: without substantially altering
TrkC
  effect on TrkC functions: without substantially altering
[2]
  correct hits in odor versus odor discrimination: > 80%
